# Experimental data as given in patent US7135466B2 (Kirin Beer Kabushiki Kaisha, priority 1999, dated 2006).
# Target: T1, c-kit (Homo sapiens, UniProt P10721)
# T1 construct: MO7e (human megakaryocytic leukemia cell line) which had been arrested for 20 hr; endogenous in cells; host or cells: MO7e human megakaryocytic leukemia cell line
# Experiment: Inhibitory activity against c-kit autophosphorylation (MO7e cells, h-SCF)
# Assay type: cell-based
# Settings: MO7e cells, 50 ng/ml h-SCF; read-out: c-kit IC50
# Outline: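 Ligand-induced c-kit tyrosine phosphorylation is measured in MO7e cells that were quiesced 20 hr and preincubated with compound for 1 hr prior to a 5 min pulse of 50 ng/ml human SCF. Phospho-c-kit is detected by anti-phosphotyrosine capture ELISA, A450.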
# T1 sequence (P10721 26-976): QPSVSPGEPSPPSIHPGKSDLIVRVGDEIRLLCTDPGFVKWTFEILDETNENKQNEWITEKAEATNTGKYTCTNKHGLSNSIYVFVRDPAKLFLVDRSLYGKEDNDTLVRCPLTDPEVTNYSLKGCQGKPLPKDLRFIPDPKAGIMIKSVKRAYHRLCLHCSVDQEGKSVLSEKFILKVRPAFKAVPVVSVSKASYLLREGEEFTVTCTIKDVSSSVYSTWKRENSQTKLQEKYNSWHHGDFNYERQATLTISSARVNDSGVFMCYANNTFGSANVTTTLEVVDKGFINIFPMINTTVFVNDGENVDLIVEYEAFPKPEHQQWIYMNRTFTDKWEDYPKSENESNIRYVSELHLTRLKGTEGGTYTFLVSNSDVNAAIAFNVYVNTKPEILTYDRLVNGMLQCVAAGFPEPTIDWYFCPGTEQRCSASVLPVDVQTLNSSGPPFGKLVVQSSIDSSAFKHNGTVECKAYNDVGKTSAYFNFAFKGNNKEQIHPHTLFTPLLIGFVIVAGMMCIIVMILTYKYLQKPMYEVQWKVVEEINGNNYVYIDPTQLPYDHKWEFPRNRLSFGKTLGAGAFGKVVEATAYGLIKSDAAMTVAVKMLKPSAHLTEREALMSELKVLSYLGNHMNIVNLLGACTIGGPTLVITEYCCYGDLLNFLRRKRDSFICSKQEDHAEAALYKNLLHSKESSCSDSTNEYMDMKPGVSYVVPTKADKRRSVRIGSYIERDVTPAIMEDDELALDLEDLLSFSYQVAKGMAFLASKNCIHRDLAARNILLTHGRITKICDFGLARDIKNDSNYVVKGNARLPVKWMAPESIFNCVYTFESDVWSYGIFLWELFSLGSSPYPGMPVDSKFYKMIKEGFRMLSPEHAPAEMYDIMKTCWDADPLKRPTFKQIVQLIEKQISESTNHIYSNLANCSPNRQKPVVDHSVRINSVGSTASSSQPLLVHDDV
row,SMILES,IC50 [nM]
1,"COc1ccc(NC(=O)COc2ccc(Oc3ccnc4cc(OC)c(OC)cc34)cc2)cc1 [Example 780, N1-(4-Methoxyphenyl)-2-{4-[(6,7-dimethoxy-4-quinolyl)oxy]phenoxy}acetamide]",48
2,"COc1cc2nccc(Oc3ccc(NC(=S)NC(=O)Cc4ccccc4F)cc3)c2cc1OC [Example 729, N-{4-[(6,7-Dimethoxy-4-quinolyl)oxy]phenyl}-N′-[2-(2-fluorophenyl)acetyl]thiourea]",302
3,"COc1cc2nccc(Oc3ccc(OCC(=O)Nc4ccccc4C)cc3)c2cc1OC [Example 782, N1-(2-Methylphenyl)-2-{4-[(6,7-dimethoxy-4-quinolyl)oxy]phenoxy}acetamide]",365

# Same assay, conditions: MO7e cells, h-SCF 50 ng/ml; read-out: c-kit IC50
row,SMILES,IC50 [nM]
1,"COc1cc2nccc(Oc3ccc(NC(=O)OCc4ccc(Cl)cc4)cc3)c2cc1OC [Example 229, 4-Chlorobenzyl N-{4-[(6,7-dimethoxy-4-quinolyl)oxy]phenyl}carbamate]",47
2,"CCCCOC(=O)Nc1ccc(Oc2ncnc3cc(OC)c(OC)cc23)cc1Cl [Example 345, Butyl N-{2-chloro-4-[(6,7-dimethoxy-4-quinazolinyl)oxy]phenyl}carbamate]",123
3,"COc1cc2nccc(Oc3cc(C)c(NC(=O)OC4CCCCC4)cc3C)c2cc1OC [Example 221, Cyclohexyl N-{4-[(6,7-dimethoxy-4-quinolyl)oxy]-2,5-dimethylphenyl}carbamate]",109
4,"COc1cc2nccc(Oc3ccc(NC(=O)OCc4ccccc4Cl)cc3)c2cc1OC [Example 227, 2-Chlorobenzyl N-{4-[(6,7-dimethoxy-4-quinolyl)oxy]phenyl}carbamate]",194
5,"COc1cc2nccc(Oc3ccc(NC(=O)OCc4cccc(Cl)c4)cc3)c2cc1OC [Example 228, 3-Chlorobenzyl N-{4-[(6,7-dimethoxy-4-quinolyl)oxy]phenyl}carbamate]",71
6,"COc1cc2nccc(Oc3ccc(NC(=O)Oc4ccccc4)cc3)c2cc1OC [Example 216, Phenyl N-{4-[(6,7-dimethoxy-4-quinolyl)oxy]phenyl}carbamate]",19

# Same assay, conditions: MO7e cells, h-SCF stimulation; read-out: c-kit IC50
row,SMILES,IC50 [nM]
1,"CCc1ccccc1OCCNc1ccc(Oc2ccnc3cc(OC)c(OC)cc23)cc1 [Example 861, N-{4-[(6,7-Dimethoxy-4-quinolyl)oxy]phenyl}-N-[2-(2-ethylphenoxy)ethyl]amine]",132
2,"COc1cc2nccc(Oc3ccc(NC(=S)NC(=O)c4cc(Cl)cc(Cl)c4)cc3Cl)c2cc1OC [Example 1116, N-{3-Chloro-4-[(6,7-dimethoxy-4-quinolyl)oxy]phenyl}-N′-(3,5-dichlorobenzoyl)thiourea]",878
3,"COc1cc2nccc(Oc3ccc(NC(=S)NC(=O)c4ccccc4Br)cc3F)c2cc1OC [Example 914, N-(2-Bromobenzoyl)-N′-{4-[(6,7-dimethoxy-4-quinolyl)oxy]-3-fluorophenyl}thiourea]",299
4,"COc1cc2nccc(Oc3ccc(SCCOc4ccc(Cl)cc4)cc3)c2cc1OC [Example 818, 4-(4-{[2-(4-Chlorophenoxy)ethyl]sulfanyl}phenoxy)-6,7-dimethoxyquinoline]",205
5,"COc1cc2nccc(Oc3ccc(NCCOc4ccc(F)cc4)cc3)c2cc1OC [Example 866, N-{4-[(6,7-Dimethoxy-4-quinolyl)oxy]phenyl}-N-[2-(4-fluorophenoxy)ethyl]amine]",126
6,"COc1cc2nccc(Oc3ccc(NC(=S)NC(=O)c4cc(C)oc4C)c(F)c3)c2cc1OC [Example 1037, N-{4-[(6,7-Dimethoxy-4-quinolyl)oxy]-2-fluorophenyl}-N′-[(2,5-dimethyl-3-furyl)carbonyl]-thiourea]",558
7,"COc1cc2nccc(Oc3ccc(NC(=S)NC(=O)CCSC)c(F)c3)c2cc1OC [Example 1067, N-{4-[(6,7-Dimethoxy-4-quinolyl)oxy]-2-fluorophenyl}-N′-[3-(methylsulfanyl)propanoyl]thiourea]",449
8,"COc1cc2nccc(Oc3ccc(NC(=S)NC(=O)c4ccccc4)cc3C)c2cc1OC [Example 1109, N-Benzoyl-N′-{4-[(6,7-dimethoxy-4-quinolyl)oxy]-3-methylphenyl}thiourea]",353
9,"COc1cc2nccc(Oc3ccc(S(=O)(=O)CCOc4ccc(C(C)C)cc4)cc3)c2cc1OC [Example 835, 4-[(6,7-Dimethoxy-4-quinolyl)oxy]phenyl [2-(4-isopropylphenoxy)ethyl]sulfone]",668
10,"COc1cc2nccc(Oc3ccc(NC(=S)NC(=O)C4CC4c4ccccc4)cc3Cl)c2cc1OC (stereo not drawn) [Example 1059, N-{3-Chloro-4-[(6,7-dimethoxy-4-quinolyl)oxy]phenyl}-N′-[(2-phenylcyclopropyl)carbonyl]thiourea]",550
11,"COc1cc2nccc(Oc3ccc(SCCOc4ccc(Cl)cc4Cl)cc3)c2cc1OC [Example 825, 4-(4-{[2-(2,4-Dichlorophenoxy)ethyl]sulfanyl}phenoxy)-6,7-dimethoxyquinoline]",333
12,"COc1cccc(C(=O)NC(=S)Nc2ccc(Oc3ncnc4cc(OC)c(OC)cc34)cc2)c1 [Example 956, N-{4-[(6,7-Dimethoxy-4-quinazolinyl)oxy]phenyl}-N′-(3-methoxybenzoyl)thiourea]",326
13,"COc1cc2nccc(Oc3ccc(NC(=S)NC(=O)CCc4ccccc4C)cc3F)c2cc1OC [Example 1134, N-{4-[(6,7-Dimethoxy-4-quinolyl)oxy]-3-fluorophenyl}-N′-[3-(2-methylphenyl)propanoyl]thiourea]",169
14,"COc1cc2nccc(Oc3ccc(NC(=S)NC(=O)CCCCl)c(F)c3)c2cc1OC [Example 1066, N-(4-Chlorobutanoyl)-N′-{4-[(6,7-dimethoxy-4-quinolyl)oxy]-2-fluorophenyl}thiourea]",279
15,"COc1cc2nccc(Oc3ccc(NC(=S)NC(=O)c4c(F)cccc4F)cc3)c2cc1OC [Example 1007, N-(2,6-Difluorobenzoyl)-N′-{4-[(6,7-dimethoxy-4-quinolyl)oxy]phenyl}thiourea]",616
16,"COc1cc2nccc(Oc3ccc(SCCOc4cccc(F)c4)cc3)c2cc1OC [Example 821, 4-(4-{[2-(3-Fluorophenoxy)ethyl]sulfanyl}phenoxy)-6,7-dimethoxyquinoline]",184
17,"COc1cc2nccc(Oc3ccc(NC(=S)NC(=O)CCSC)cc3F)c2cc1OC [Example 1069, N-{4-[(6,7-Dimethoxy-4-quinolyl)oxy]-3-fluorophenyl}-N′-[3-(methylsulfanyl)propanoyl]thiourea]",189
18,"COc1cc2nccc(Oc3ccc(SCCCOc4ccccc4F)cc3)c2cc1OC [Example 842, 4-(4-{[3-(2-Fluorophenoxy)propyl]sulfanyl}phenoxy)-6,7-dimethoxyquinoline]",127
19,"COc1cc2ncnc(Oc3ccc(NC(=S)NC(=O)c4cccc(Cl)c4)cc3)c2cc1OC [Example 955, N-(3-Chlorobenzoyl)-N′-{4-[(6,7-dimethoxy-4-quinazolinyl)oxy]phenyl}thiourea]",251
20,"COc1cc2nccc(Oc3ccc(NCCOc4c(F)cccc4F)cc3)c2cc1OC [Example 857, N-[2-(2,6-Difluorophenoxy)ethyl]-N-{4-[(6,7-dimethoxy-4-quinolyl)oxy]phenyl}amine]",195

# Same assay, conditions: Mo7e, figure in parentheses in −( ); at 1000 nM
row,SMILES,inhibition at 1 µM [%]
1,"COc1cc2ncnc(Oc3ccc(SCCCOc4cccc(C)c4)cc3)c2cc1OC [Example 846, 6,7-Dimethoxy-4-(4-{[3-(3-methylphenoxy)propyl]sulfanyl}phenoxy)quinazoline]",33
2,"COc1cc2nccc(Oc3ccc(NC(=S)NC(=O)c4ccc([N+](=O)[O-])cc4)cc3)c2cc1OC [Example 962, N-{4-[(6,7-Dimethoxy-4-quinolyl)oxy]phenyl}-N′-(4-nitrobenzoyl)thiourea]",35
3,COc1cc2nccc(Oc3ccc(NC(=S)NC(=O)c4ccc(Cl)cc4)cc3Cl)c2cc1OC [Example 978],22
4,"COc1cc2ncnc(Oc3ccc(NC(=S)NC(=O)c4ccc(F)cc4F)cc3)c2cc1OC [Example 1021, N-(2,4-Difluorobenzoyl)-N′-{4-[(6,7-dimethoxy-4-quinazolinyl)oxy]phenyl}thiourea]",38
5,"COc1ccc(C(=O)NC(=S)Nc2ccc(Oc3ccnc4cc(OC)c(OC)cc34)cc2)c(OC)c1 [Example 1119, N-(2,4-Dimethoxybenzoyl)-N′-{4-[(6,7-dimethoxy-4-quinolyl)oxy]phenyl}thiourea]",27
6,"COc1cc2nccc(Oc3ccc(NC(=S)NC(=O)c4ccccc4C)c(C)c3C)c2cc1OC [Example 1085, N-{4-[(6,7-Dimethoxy-4-quinolyl)oxy]-2,3-dimethylphenyl}-N′-(2-methylbenzoyl)thiourea]",25
7,"COc1cc2nccc(Oc3ccc(NC(=S)NC(=O)c4ccsc4)c(F)c3)c2cc1OC [Example 1036, N-{4-[(6,7-Dimethoxy-4-quinolyl)oxy]-2-fluorophenyl}-N′-(3-thienylcarbonyl)thiourea]",29
8,"COc1cc2nccc(Oc3ccc(NC(=S)NC(=O)c4c(Cl)cccc4Cl)cc3)c2cc1OC [Example 1118, N-(2,6-Dichlorobenzoyl)-N′-{4-[(6,7-dimethoxy-4-quinolyl)oxy]phenyl}thiourea]",0
9,"COc1cc2nccc(Oc3ccc(NC(=S)NC(=O)c4ccc([N+](=O)[O-])cc4)cc3Cl)c2cc1OC [Example 982, N-{3-Chloro-4-[(6,7-dimethoxy-4-quinolyl)oxy]phenyl}-N′-(4-nitrobenzoyl)thiourea]",18

# Same assay, conditions: Mo7e, figure within parentheses in −( ) or >1000( ); at 1000 nM
row,SMILES,inhibition at 1 µM [%]
1,"CCN(CC)CCCNC(=S)Nc1ccc(Oc2ncnc3cc(OC)c(OC)cc23)cc1 [Example 531, N-{4-[(6,7-Dimethoxy-4-quinazolinyl)oxy]phenyl}-N′-(3-diethylaminopropyl)thiourea]",31
